We go through two compounds from US8865683B2, “Active compound combinations having insecticidal properties” (priority 2003, dated 2014).

Structures are written as SMILES.

In this test the test system is green peach aphid (Myzus persicae). As to the kind of experiment: Myzus persicae test (cabbage leaf dip). The format is in vivo. As to conditions: cabbage leaves (Brassica oleracea) dipped. The source says:
The expected action for a given combination of two active compounds can be calculated according to S. R. Colby, Weed, 15 (1967), 20-22): […]
If • X is the kill rate, expressed as a percentage of the untreated control, when employing active compound A at an application rate of m g/ha or in a concentration of m ppm, • Y is the kill rate, expressed as a percentage of the untreated control, when employing active compound B at an application rate of n g/ha or in a concentration of n ppm and • E is the kill rate, expressed as a percentage of the untreated control, when employing active compounds A and B at application rates of m and n g/ha or in a concentration of m and n ppm, then
If the actual insecticidal kill rate exceeds the calculated value, the action of the combination is superadditive, i.e. a synergistic effect is present. In this case, the actually observed kill rate must exceed the value calculated using the above formula for the expected kill rate (E).
After the desired period of time, the kill in % is determined. 100% means that all animals have been killed; 0% means that none of the animals have been killed. […]
After the desired period of time, the kill in % is determined. […] The determined kill ratios are entered into Colby's formula (see page 42).

Regarding `Cc1cc(Cl)cc(C(=O)NC(C)C)c1NC(=O)c1cc(C(F)(F)F)nn1-c1ncccc1Cl` [(I-1-9)], the “Kill rate in % after 1d, found” value (4 ppm active compound) came to 0%.
On to `CCOP(=S)(OCC)Oc1nc(Cl)c(Cl)cc1Cl` [(2-2) chlorpyrifos, chlorpyrifos], for which the “Kill rate in % after 1d, found” value (0.8 ppm active compound) came out at 65%.
